In ChEMBL document CHEMBL1201862, “PubChem BioAssay data set” (2004):
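48-hour exposure; five concentrations; linearly interpolated endpoints. GI50 is the concentration that inhibits growth by half.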 The source made the active and inactive calls. Rule as the data show it: active = GI50 up to about 1.1 µM and inactive = higher.

Assays:
Experiment in all cases: NCI-60 cell line screen, 48 h
NCI-H460 = tested on: NCI-H460
SNB-19 = tested on: SNB-19
LXFL 529 = tested on: LXFL 529
NCI-H226 = tested on: NCI-H226
SR = tested on: SR
NCI-H23 = tested on: NCI-H23
M19-MEL = tested on: M19-MEL
COLO 205 = tested on: COLO 205
HOP-18 = tested on: HOP-18
DMS-273 = tested on: DMS-273
DLD-1 = tested on: DLD-1
XF498 = tested on: XF498
NCI/ADR-RES = tested on: NCI/ADR-RES
DMS-114 = tested on: DMS-114
CAKI-1 = tested on: CAKI-1
SNB-78 = tested on: SNB-78
RXF 393 = tested on: RXF 393
PC-3 = tested on: PC-3
MDA-MB-231 = tested on: MDA-MB-231
Hs-578T = tested on: Hs-578T

| SMILES | GI50 (NCI-H460) | GI50 (SNB-19) | GI50 (LXFL 529) | GI50 (NCI-H226) | GI50 (SR) | GI50 (NCI-H23) | GI50 (M19-MEL) | GI50 (COLO 205) | GI50 (HOP-18) | GI50 (DMS-273) | GI50 (DLD-1) | GI50 (XF498) | GI50 (NCI/ADR-RES) | GI50 (DMS-114) | GI50 (CAKI-1) | GI50 (SNB-78) | GI50 (RXF 393) | GI50 (PC-3) | GI50 (MDA-MB-231) | GI50 (Hs-578T) |
| --- | --- | --- | --- | --- | --- | --- | --- | --- | --- | --- | --- | --- | --- | --- | --- | --- | --- | --- | --- | --- |
| C=CCN1C(N)=C(C(N)=O)S/C1=C1/SC(=S)N(c2ccc(C)cc2)C1=O | > 100 µM (inactive) | > 100 µM (inactive) | > 100 µM (inactive) | > 100 µM (inactive) | > 100 µM (inactive) | 65.3 µM (inactive) | > 100 µM (inactive) | > 100 µM (inactive) | 61.9 µM (inactive) |  |  |  |  |  |  |  |  |  |  |  |
| O=C1C=C[C@@H](COC2OC(CO)C(O)C(O)C2O)O1 (stereo partly drawn) | 10.3 µM (inactive) | > 10 µM (inactive) |  | 35.7 µM (inactive) |  | 10.9 µM (inactive) | 12.8 µM (inactive) | 6.98 µM (inactive) | 68.2 µM (inactive) | 14.1 µM (inactive) | 3.35 µM (inactive) | 16.6 µM (inactive) | 4.38 µM (inactive) | 14.1 µM (inactive) | 17.9 µM (inactive) |  |  |  |  |  |
| COc1cc(Nc2c3ccccc3nc3ccccc23)ccc1NS(C)(=O)=O | 2.64 µM (inactive) | 5.73 µM (inactive) | 4.8 µM (inactive) | 11.2 µM (inactive) | 2.72 µM (inactive) | > 10 µM (inactive) | 5.93 µM (inactive) | 3.48 µM (inactive) | 13.3 µM (inactive) |  | 5.14 µM (inactive) |  |  | 6.58 µM (inactive) | 3.02 µM (inactive) | 7.67 µM (inactive) |  |  |  |  |
| CCCSc1ccc2[nH]c(N3C(=O)/C(=C/c4cc(OC)c(OC)c(OC)c4)N=C3c3ccccc3)cc2c1 | 12.5 µM (inactive) | 0.681 µM (active) |  | > 37.5 µM (inactive) | 1.66 µM (inactive) | 10.9 µM (inactive) |  | 8.43 µM (inactive) |  |  |  |  | 11.6 µM (inactive) |  | 11.9 µM (inactive) |  | 7.73 µM (inactive) | 16.1 µM (inactive) | > 37.5 µM (inactive) | 0.67 µM (active) |
| COc1ccc(CNc2nc3cc(C(F)(F)F)ccc3nc2C)cc1OC | 30.1 µM (inactive) | 41.6 µM (inactive) | 35.8 µM (inactive) |  |  | 35.7 µM (inactive) | 32.8 µM (inactive) | 32.9 µM (inactive) |  | 20 µM (inactive) | 35.7 µM (inactive) | 35.3 µM (inactive) |  |  | 33 µM (inactive) | 12.2 µM (inactive) |  |  |  |  |
| Cc1c(C#N)c2nnn(C)c(=O)n2c1-c1ccccc1 | > 100 µM (inactive) | > 100 µM (inactive) |  | 62.1 µM (inactive) |  | 59.3 µM (inactive) |  |  |  |  |  |  | 17.5 µM (inactive) |  | > 100 µM (inactive) |  | > 100 µM (inactive) | 54.5 µM (inactive) | > 100 µM (inactive) |  |
| Cn1cc(C(=O)/C(Cl)=C(\Cl)C(=O)O)c2ccccc21 | > 100 µM (inactive) |  |  | > 100 µM (inactive) |  | > 100 µM (inactive) | > 100 µM (inactive) |  |  | > 100 µM (inactive) | > 100 µM (inactive) | > 100 µM (inactive) |  | > 100 µM (inactive) | > 100 µM (inactive) | > 100 µM (inactive) | > 100 µM (inactive) |  |  |  |
| CC(C)OP(=O)(OC(C)C)/C(=N/Nc1ccc([N+](=O)[O-])cc1)NCCO | > 100 µM (inactive) | > 100 µM (inactive) | 38.4 µM (inactive) | > 100 µM (inactive) | > 100 µM (inactive) | > 100 µM (inactive) | > 100 µM (inactive) | > 100 µM (inactive) |  | > 100 µM (inactive) | > 100 µM (inactive) | > 100 µM (inactive) |  | 90.6 µM (inactive) | > 100 µM (inactive) | 99.8 µM (inactive) |  |  |  |  |
| COc1cccc(N/C(C)=C2/CCOC2=O)c1 | > 10 µM (inactive) | > 10 µM (inactive) |  | > 10 µM (inactive) | > 10 µM (inactive) | > 10 µM (inactive) |  | > 10 µM (inactive) |  |  |  |  | > 10 µM (inactive) |  | > 10 µM (inactive) |  | > 10 µM (inactive) | > 10 µM (inactive) | 6.56 µM (inactive) | > 10 µM (inactive) |
| O=C(CCl)NC(Cc1ccc(F)cc1)C(=O)O (stereo not drawn) | > 100 µM (inactive) | > 100 µM (inactive) |  | > 100 µM (inactive) |  | > 100 µM (inactive) | > 100 µM (inactive) | > 100 µM (inactive) | > 100 µM (inactive) | > 100 µM (inactive) | > 88.9 µM (inactive) | > 100 µM (inactive) | > 100 µM (inactive) | > 100 µM (inactive) | > 100 µM (inactive) | > 100 µM (inactive) |  |  |  |  |
| Cc1sc(Cc2ccccc2)nc1-c1ccc(N)cc1 | 23 µM (inactive) | 48.4 µM (inactive) |  |  |  | 32.9 µM (inactive) |  | 23.1 µM (inactive) |  |  |  |  | 27.7 µM (inactive) |  | 24 µM (inactive) |  |  | 29.9 µM (inactive) | 26.1 µM (inactive) | 20.2 µM (inactive) |
| CC(C)(C)CI | 27.9 µM (inactive) | 23 µM (inactive) | 33.3 µM (inactive) |  | 25.4 µM (inactive) | 55.6 µM (inactive) | 23 µM (inactive) | 22.2 µM (inactive) | > 10 µM (inactive) | 15.1 µM (inactive) | 34.2 µM (inactive) | 18.5 µM (inactive) |  | 19.7 µM (inactive) |  | 32.1 µM (inactive) | 18.4 µM (inactive) |  |  |  |
| COc1cc(Nc2nc3cc(C(F)(F)F)ccc3n3cccc23)cc(OC)c1OC |  | > 100 µM (inactive) |  |  |  | > 100 µM (inactive) |  | > 100 µM (inactive) |  |  |  |  | 9.4 µM (inactive) |  | > 100 µM (inactive) |  | 3.93 µM (inactive) | > 100 µM (inactive) |  | > 100 µM (inactive) |
| Cc1c2ccnc(C(F)(F)F)c2cc2c1[nH]c1ccccc12 | 123 µM (inactive) | 118 µM (inactive) |  | 38.9 µM (inactive) |  | > 125 µM (inactive) | > 125 µM (inactive) | > 125 µM (inactive) | 0.673 µM (active) | > 125 µM (inactive) | > 125 µM (inactive) | 12 µM (inactive) | > 125 µM (inactive) | > 125 µM (inactive) | > 125 µM (inactive) | 86.5 µM (inactive) | 16.6 µM (inactive) |  |  |  |
| CCCn1c(CN(Cc2nc3ccccc3n2CCC)Cc2nc3ccccc3n2CCC)nc2ccccc21 | 3.27 µM (inactive) | 7.01 µM (inactive) |  | 6.47 µM (inactive) | 2.58 µM (inactive) | 5.11 µM (inactive) |  | 2.81 µM (inactive) |  |  |  |  | 8.69 µM (inactive) |  | 2.81 µM (inactive) |  | 0.249 µM (active) | 3.31 µM (inactive) | 2.04 µM (inactive) | 25.6 µM (inactive) |
| O=S1(=O)CS(=O)(=O)OCCCO1 | 27.3 µM (inactive) | > 100 µM (inactive) |  | > 100 µM (inactive) | 41.2 µM (inactive) | 68.5 µM (inactive) |  | > 100 µM (inactive) |  |  |  |  | > 100 µM (inactive) |  | 24.3 µM (inactive) |  | > 100 µM (inactive) | > 100 µM (inactive) | > 100 µM (inactive) | > 100 µM (inactive) |
| CC1(C)CCCC2(C)[C@@H]1CC[C@]13C[C@](C)(CC[C@@H]21)[C@@H]3CO (stereo partly drawn) | > 100 µM (inactive) | > 100 µM (inactive) | > 100 µM (inactive) | > 100 µM (inactive) | > 10 µM (inactive) | > 100 µM (inactive) | > 100 µM (inactive) | > 100 µM (inactive) |  | > 100 µM (inactive) | > 100 µM (inactive) | > 100 µM (inactive) |  | > 100 µM (inactive) | > 100 µM (inactive) | > 100 µM (inactive) | 98.9 µM (inactive) |  |  |  |
